According to patent US20230212191A1, “SPIRO-SULFONIMIDAMIDE DERIVATIVES AS INHIBITORS OF MYELOID CELL LEUKEMIA-1 (MCL-1) PROTEIN” (PRELUDE THERAPEUTICS, INCORPORATED, priority 2020, published 2023):
Where two headings read alike, the source gives them in different places.

Key:
MCL-1 = biological target: T1, MCL-1 (Homo sapiens, UniProt Q07820); assay: Cell free Mcl-1:Bim affinity assay (fluorescence polarization competition); type: binding; conditions: 15 nM MCL-1, 5 nM FITC-Bim tracer, 1 hour at room temperature; Ki calc. from IC50 by Nikolovska-Coleska's equation; read-out: BIM_ Ki
T1 construct: purchased BPS Bioscience
T1 sequence (Q07820 whole entry): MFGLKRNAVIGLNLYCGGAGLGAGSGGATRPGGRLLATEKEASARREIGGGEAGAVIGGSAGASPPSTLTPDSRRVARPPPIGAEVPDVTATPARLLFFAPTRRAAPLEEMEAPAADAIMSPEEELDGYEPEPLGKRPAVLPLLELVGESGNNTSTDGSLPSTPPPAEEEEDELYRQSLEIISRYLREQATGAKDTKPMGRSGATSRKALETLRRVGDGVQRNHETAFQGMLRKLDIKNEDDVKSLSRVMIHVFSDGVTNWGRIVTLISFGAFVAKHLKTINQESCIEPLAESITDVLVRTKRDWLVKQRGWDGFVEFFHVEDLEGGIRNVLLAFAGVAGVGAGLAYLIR
Protocol: Cell Free Mcl-1:Bim Affinity Assay (Mcl-1 Bim)
The binding affinity of each compound was measured via a fluorescence polarization competition assay, in which the compound competes for the same binding site with the ligand, and thus leads to a dose-dependent anisotropy reduction. The tracer ligand utilized was a fluorescein isothiocyanate labelled peptide (FITC-[…]) derived from Bim (GenScript).
The assay was carried out in black half-area 96-well NBS plate (Corning), containing 15 nM of MCL-1 (BPS Bioscience), 5 nM of FITC-Bim and 3-fold serial diluted test compounds in a total volume of 50 μL of assay buffer (20 mM HEPES, 50 mM NaCl, 0.002% Tween 20, 1 mM TCEP, and 1% DMSO). The reaction plate was incubated for 1 hour at room temperature. The change of anisotropy is measured with an Envision multimode plate reader (PerkinElmer) at emission wavelength 535 nm. Fluorescence polarization was calc. in mP unit and the percentage inhibition was calc. by % inhibition=100×(mPDMSO−mP)/(mPDMSO−mPPC), in which mPDMSO is the DMSO control, and mPPC is the positive control. IC50 values were determined from a 10-point dose response curve by fitting the percent inhibition against compound concentration using the GraphPad Prism software. The inhibition constant Ki was subsequently calc. according to the Nikolovska-Coleska's equation (Anal. Biochem., 2004, 332, 261),
where [I]50 is the concentration of the free inhibitor at 50% inhibition, [L]50 is the concentration of the free labeled ligand at 50% inhibition, [P]0 is the concentration of the free protein at 0% inhibition, and Kd is the dissociation constant of the protein-ligand complex.

H929 cells = assay: Cell viability assay (H929 10 FBS); type: cell-based; conditions: CellTiter-Glo or ATPlite, read-out: H929_10FBS IC50
Protocol: Cell Viability Assay (H929 10 FBS)
Dispense 10 μL aliquot of prepared H929 cells (1:1 ratio of cells:Trypan Blue (#1450013, Bio-Rad)) onto cell counting slide (#145-0011, Bio-Rad) and obtain cell density and cell viability using cell counter (TC20, Bio-Rad). Remove appropriate volume of resuspended cells from culture flask to accommodate 4000 cells/well @ 10 μL/well. Transfer H929 cells to 50 mL conical (#430290, Corning). Spin down at 1000 rpm for 5 min using tabletop centrifuge (SPINCHRON 15, Beckman). Discard supernatant and resuspend cell pellet in modified RPMI 1640 (#10-040-CV, Corning) cell culture media containing 10% FBS (F2422-500 ML, Sigma), sodium pyruvate (100 mM) (#25-000-CL, Corning), HEPES buffer (1 M) (#25-060-CL, Corning) and glucose (200 g/L) (A24940-01, Gibco) to a cell density of 400,000 cells/mL. Dispense 10 μL of resuspended H929 cells per well in 384-well small volume TC treated plate (#784080, Greiner Bio-one) using standard cassette (#50950372, Thermo Scientific) on Multi-drop Combi (#5840310, Thermo Scientific) in laminar flow cabinet. Dispense compounds onto plates using digital liquid dispenser (D300E, Tecan). Incubate plates in humidified tissue culture incubator @ 37° C. for 24 hours. Add 10 μL of prepared CellTiTer-Glo® detection buffer (G7570, Promega) or ATPlite 1Step detection reagent (#6016731, Perkin Elmer) to each well of 384-well plate using small tube cassette (#24073295, Thermo Scientific) on Combi multi drop, incubate @ RT for 30-60 min. Read plates with microplate reader (PheraStar, BMG Labtech) using 384 well luminescence mode.

SMILES	Ki (MCL-1)	IC50 (H929 cells; 24 hours)	IC50 (H929 cells; Homo sapiens, NCI-H929, 24 h)
COC1CN(C(=O)NS2(=O)=NC(=O)C(C)(C)OCC=CC(OC)C3CCC3CN3CC4(CCCc5cc(Cl)ccc54)COc4ccc2cc43)C1 (stereo not shown) [31 or 32]	< 1 nM		< 100 nM
COC1CN(C(=O)NS2(=O)=NC(=O)C(C)(C)OCC=CC(OC)C3CCC3CN3CC4(CCCc5cc(Cl)ccc54)COc4ccc2cc43)C1 (stereo not shown) [32 or 31]	< 1 nM	100 to 500 nM	
CO[C@H]1/C=C/COC(C)(C)C(=O)N=S(=O)(NC(=O)c2cnn(C)c2)c2ccc3c(c2)N(C[C@@H]2CC[C@H]21)C[C@@]1(CCCc2cc(Cl)ccc21)CO3 (stereo partly drawn) [Example 15, N-[(3R,6R,7S,8E,22S)-7′-Chloro-7-methoxy-12,12-dimethyl-13,15-dioxospiro[11,20-dioxa-15-thia-1,14-diazatetracyclo[14.7.2.03,6.019,24]pentacosa-8,14,16,18,24-pentaene-22,4′-2,3-dihydro-1H-naphthalene]-15-yl]-1-methylpyrazole-4-carboxamide]	< 1 nM		< 100 nM
CO[C@H]1/C=C/COC(C)(C)C(=O)N=S(=O)(NC(=O)c2cc(C)n(C)n2)c2ccc3c(c2)N(C[C@@H]2CC[C@H]21)C[C@@]1(CCCc2cc(Cl)ccc21)CO3 (stereo partly drawn) [Example 19, N-[(3R,6R,7S,8E,22S)-7′-Chloro-7-methoxy-12,12-dimethyl-13,15-dioxospiro[11,20-dioxa-15-thia-1,14-diazatetracyclo[14.7.2.03,6.019,24]pentacosa-8,14,16,18,24-pentaene-22,4′-2,3-dihydro-1H-naphthalene]-15-yl]-1,5-dimethylpyrazole-3-carboxamide]	< 1 nM		
CO[C@H]1/C=C/COC(C)(C)C(=O)N=S(=O)(NC(=O)NC2CCOCC2)c2ccc3c(c2)N(C[C@@H]2CC[C@H]21)C[C@@]1(CCCc2cc(Cl)ccc21)CO3 (stereo partly drawn) [Example 38, 1-[(3R,6R,7S,8E,22S)-7′-Chloro-7-methoxy-12,12-dimethyl-13,15-dioxospiro[11,20-dioxa-15-thia-1,14-diazatetracyclo[14.7.2.03,6.019,24]pentacosa-8,14,16,18,24-pentaene-22,4′-2,3-dihydro-1H-naphthalene]-15-yl]-3-(oxan-4-yl)urea]	> 1 nM		
Cc1nn(C)cc1C(=O)NS1(=O)=NC(=O)C(C)(C)OC/C=C/[C@H](OC(=O)N(C)C)[C@@H]2CC[C@H]2CN2C[C@@]3(CCCc4cc(Cl)ccc43)COc3ccc1cc32 (stereo partly drawn) [Example 51, [(3R,6R,7S,8E,22S)-7′-Chloro-15-[(1,3-dimethylpyrazole-4-carbonyl)amino]-12,12-dimethyl-13,15-dioxospiro[11,20-dioxa-15-thia-1,14-diazatetracyclo[14.7.2.03,6.019,24]pentacosa-8,14,16,18,24-pentaene-22,4′-2,3-dihydro-1H-naphthalene]-7-yl] N,N-dimethylcarbamate]	< 1 nM		
Cn1cc(C(=O)NS2(=O)=NC(=O)C(C)(C)OC/C=C/[C@H](O)[C@@H]3CC[C@H]3CN3C[C@@]4(CCCc5cc(Cl)ccc54)COc4ccc2cc43)cn1 (stereo partly drawn) [Example 52, N-[(3R,6R,7S,8E,22S)-7′-Chloro-7-hydroxy-12,12-dimethyl-13,15-dioxospiro[11,20-dioxa-15-thia-1,14-diazatetracyclo[14.7.2.03,6.019,24]pentacosa-8,14,16,18,24-pentaene-22,4′-2,3-dihydro-1H-naphthalene]-15-yl]-1-methylpyrazole-4-carboxamide]	> 1 nM		

Now from value to molecule:

Ki (MCL-1)	IC50 (H929 cells; 24 hours)	IC50 (H929 cells; Homo sapiens, NCI-H929, 24 h)	SMILES
< 1 nM	< 100 nM		COC1C=CCOC(C)(C)C(=O)N=S(=O)(NC(=O)N2CC(O)C2)c2ccc3c(c2)N(CC2CCC21)CC1(CCCc2cc(Cl)ccc21)CO3 (stereo not shown) [29 or 30]
> 1 nM	> 500 nM		COC1C=CCOC(C)(C)C(=O)N=S(=O)(NC(=O)N2CC(O)C2)c2ccc3c(c2)N(CC2CCC21)CC1(CCCc2cc(Cl)ccc21)CO3 (stereo not shown) [30 or 29]
< 1 nM		< 100 nM	CO[C@H]1/C=C/COC(C)(C)C(=O)N=S(=O)(NC(=O)C2CCOCC2)c2ccc3c(c2)N(C[C@@H]2CC[C@H]21)C[C@@]1(CCCc2cc(Cl)ccc21)CO3 (stereo partly drawn) [Example 11, N-[(3R,6R,7S,8E,22S)-7′-Chloro-7-methoxy-12,12-dimethyl-13,15-dioxospiro[11,20-dioxa-15-thia-1,14-diazatetracyclo[14.7.2.03,6.019,24]pentacosa-8,14,16,18,24-pentaene-22,4′-2,3-dihydro-1H-naphthalene]-15-yl]oxane-4-carboxamide]
< 1 nM		100 to 500 nM	CO[C@H]1/C=C/COC(C)(C)C(=O)N=S(=O)(NC(=O)c2ccccc2)c2ccc3c(c2)N(C[C@@H]2CC[C@H]21)C[C@@]1(CCCc2cc(Cl)ccc21)CO3 (stereo partly drawn) [Example 12, N-[(3R,6R,7S,8E,22S)-7′-Chloro-7-methoxy-12,12-dimethyl-13,15-dioxospiro[11,20-dioxa-15-thia-1,14-diazatetracyclo[14.7.2.03,6.019,24]pentacosa-8,14,16,18,24-pentaene-22,4′-2,3-dihydro-1H-naphthalene]-15-yl]benzamide]
< 1 nM			CO[C@H]1/C=C/COC(C)(C)C(=O)N=S(=O)(NC(=O)c2cnn(C)c2C)c2ccc3c(c2)N(C[C@@H]2CC[C@H]21)C[C@@]1(CCCc2cc(Cl)ccc21)CO3 (stereo partly drawn) [Example 18, N-[(3R,6R,7S,8E,22S)-7′-Chloro-7-methoxy-12,12-dimethyl-13,15-dioxospiro[11,20-dioxa-15-thia-1,14-diazatetracyclo[14.7.2.03,6.019,24]pentacosa-8,14,16,18,24-pentaene-22,4′-2,3-dihydro-1H-naphthalene]-15-yl]-1,5-dimethylpyrazole-4-carboxamide]
< 1 nM			CN(C)C(=O)O[C@H]1/C=C/COC(C)(C)C(=O)N=S(=O)(NC(=O)c2cnn(C)c2)c2ccc3c(c2)N(C[C@@H]2CC[C@H]21)C[C@@]1(CCCc2cc(Cl)ccc21)CO3 (stereo partly drawn) [Example 53, [(3R,6R,7S,8E,22S)-7′-Chloro-12,12-dimethyl-15-[(1-methylpyrazole-4-carbonyl)amino]-13,15-dioxospiro[11,20-dioxa-15-thia-1,14-diazatetracyclo[14.7.2.03,6.019,24]pentacosa-8,14,16,18,24-pentaene-22,4′-2,3-dihydro-1H-naphthalene]-7-yl] N,N-dimethylcarbamate]
< 1 nM			CC(C)C(=O)NS1(=O)=NC(=O)C(C)(C)OC/C=C/[C@H](OCCN2CCCC2)[C@@H]2CC[C@H]2CN2C[C@@]3(CCCc4cc(Cl)ccc43)COc3ccc1cc32 (stereo partly drawn) [Example 54, N-[(3R,6R,7S,8E,22S)-7′-Chloro-12,12-dimethyl-13,15-dioxo-7-(2-pyrrolidin-1-ylethoxy)spiro[11,20-dioxa-15-thia-1,14-diazatetracyclo[14.7.2.03,6.019,24]pentacosa-8,14,16,18,24-pentaene-22,4′-2,3-dihydro-1H-naphthalene]-15-yl]-2-methylpropanamide]
> 1 nM			CC(C)C(=O)NS1(=O)=NC(=O)C(C)(C)OC/C=C/[C@H](OCCN(C)C)[C@@H]2CC[C@H]2CN2C[C@@]3(CCCc4cc(Cl)ccc43)COc3ccc1cc32 (stereo partly drawn) [Example 55, N-[(3R,6R,7S,8E,22S)-7′-Chloro-7-[2-(dimethylamino)ethoxy]-12,12-dimethyl-13,15-dioxospiro[11,20-dioxa-15-thia-1,14-diazatetracyclo[14.7.2.03,6.019,24]pentacosa-8,14,16,18,24-pentaene-22,4′-2,3-dihydro-1H-naphthalene]-15-yl]-2-methylpropanamide]
